Measured values as given in US9956204B2, “Composition for exterminating scuticociliates in fish including mebendazole” (NATIONAL INSTITUTE OF FISHERIES SCIENCE, priority 2016, dated 2018).

How the values were obtained:
scuticociliates [1] = assay: Scuticociliates extermination effect of candidate substances in seawater medium; assay type: cell-based; settings: seawater medium; for Survival or Death of scuticociliates (activity and shape, microscope): 4 hour
Outline: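 Scuticociliates grown on CHSE-214 cells in MEM, then moved into sterilized or artificial seawater (20‰). Ciliates plated at 1×10^5 per well for 30 min before adding compounds diluted in seawater. Exposure lasted 4 h.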

[2] = in vivo
Description: (§1) Mebendazole was orally or immersing administered at a concentration of 100 or 500 mg/kg BW (ppm) to the olive flounder once for 1 hour. After 6 hours, 1 day, 2 days, 7 days and 14 days, a blood chemistry analysis and an immunological analysis were conducted.
(§2) The blood chemistry analysis was conducted using Fuji-Dri Chem 4500 (Fuji company, Japan) to measure hemoglobin (Hb), hematocrit (Ht), glucose (GLU), total protein (TP), total cholesterol (TCHO), GOT/GPT and lactic acid (LDH), etc.

scuticociliates [3] = assay: Scuticociliates extermination effect of candidate substances in MEM medium; assay type: cell-based; settings: MEM medium
Outline: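 Scuticociliates grown 3 days on CHSE-214 cells in MEM at 22 °C, then 1×10^5 parasites per well mixed with diluted candidate substances to 200 μl final volume. Antiparasitic effect judged by measured scuticociliate activity.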

[4] = within 24~48 hours; cited from earlier work
scuticociliates [5] = assay: Field test of Mebendazole for exterminating scuticociliates in olive flounder farms; assay type: in vivo
From the text: The pharmaceutical efficacy was investigated after administering Mebendazole once daily for 5˜7 days to the olive flounder which are infected with scuticociliates in three major domestic olive flounder aquaculture area (Jeju, Wando, Pohang). First, the natural scuticociliates infection rate of each olive flounder farm was investigated, and the efficacy was investigated after administering Mebendazole accordingly. [table]

lysozyme = settings: in vivo
Description: as §1
The immunological analysis was conducted to measure the lysozyme activity of the kidney, spleen and serum (Lange et al., 2001, Parry, R. M. Chandau, R. C. & Shahani, R. M. (1965). A rapid and sensitive assay of muramidase. Proceedings of the Society for Experimental Biology Medicine 119, 384-386). In brief explanation, 100 μl of the prepared plasma was diluted with PBS (pH 6.2) in 2-fold to 4 steps on a 96-well plate and 100 μg of Micrococcus lysodekiticus (Sigma, USA) liquid diluted with PBS (pH 6.2) to 0.4 mg/ml was added to each well. After that, absorbance at 590 nm was measured every 0, 15, 30, 45 and 60 minutes. One unit of lysozyme activity was converted into the amount of a sample that decreases the absorbance 0.001/min.

[6] = Safety test according to field test: blood chemistry in Wando, Pohang and Jeju farms; settings: field application concentration range
Description: as §1, §2

scuticociliates [7] = assay: Clinical trial: cumulative mortality of olive flounder artificially infected with scuticociliates; assay type: in vivo; settings: observed for 15 days
Description: For the artificial infection, 1×10^5 of scuticociliates per fish were intraperitoneally injected into a total of […] juvenile olive flounder (average 10 cm). The experiment was performed by dividing them into 5 groups of every 20 fish per each experiment.

COC(=O)Nc1nc2ccc(C(=O)c3ccccc3)cc2[nH]1 [Mebendazole]
killing of scuticociliates compared with the 19 candidate substances (scuticociliates [1]): most effectively kills scuticociliates | Survival or Death of scuticociliates (activity and shape, microscope) (scuticociliates [1]; Dosage 10 ppm): Survival | Survival or Death of scuticociliates (activity and shape, microscope) (scuticociliates [1]; Dosage 50 ppm): Survival | Survival or Death of scuticociliates (activity and shape, microscope) (scuticociliates [1]; Dosage 100 ppm): Death | Survival or Death of scuticociliates (activity and shape, microscope) (scuticociliates [1]; Dosage 200 ppm): Death | Survival or Death of scuticociliates (activity and shape, microscope) (scuticociliates [1]; Dosage 300 ppm): Death | Survival or Death of scuticociliates (activity and shape, microscope) (scuticociliates [1]; Dosage 400 ppm): Death | Survival or Death of scuticociliates (activity and shape, microscope) (scuticociliates [1]; Dosage 500 ppm): Death | Survival or Death of scuticociliates (activity and shape, microscope) (scuticociliates [1]; Dosage 600 ppm): Death | Survival or Death of scuticociliates (activity and shape, microscope) (scuticociliates [1]; Dosage 700 ppm): Death | Survival or Death of scuticociliates (activity and shape, microscope) (scuticociliates [1]; Dosage 800 ppm): Death | Survival or Death of scuticociliates (activity and shape, microscope) (scuticociliates [1]; Dosage 900 ppm): Death | Survival or Death of scuticociliates (activity and shape, microscope) (scuticociliates [1]; Dosage 1000 ppm): Death | MCHC numerical values [2]: did not show any significant differences | concentration of Hb in the blood [2]: slightly increases | killing of scuticociliates compared with the 19 candidate substances (scuticociliates [3]): effect of killing scuticociliates at the lowest concentration | Survival or Death of scuticociliates (activity and shape, microscope) (scuticociliates [3]; Dosage 10 ppm): Survival | Survival or Death of scuticociliates (activity and shape, microscope) (scuticociliates [3]; Dosage 50 ppm): Survival | Survival or Death of scuticociliates (activity and shape, microscope) (scuticociliates [3]; Dosage 100 ppm): Death | Survival or Death of scuticociliates (activity and shape, microscope) (scuticociliates [3]; Dosage 200 ppm): Death | Survival or Death of scuticociliates (activity and shape, microscope) (scuticociliates [3]; Dosage 300 ppm): Death | Survival or Death of scuticociliates (activity and shape, microscope) (scuticociliates [3]; Dosage 400 ppm): Death | Survival or Death of scuticociliates (activity and shape, microscope) (scuticociliates [3]; Dosage 500 ppm): Death | Survival or Death of scuticociliates (activity and shape, microscope) (scuticociliates [3]; Dosage 600 ppm): Death | Survival or Death of scuticociliates (activity and shape, microscope) (scuticociliates [3]; Dosage 700 ppm): Death | Survival or Death of scuticociliates (activity and shape, microscope) (scuticociliates [3]; Dosage 800 ppm): Death | Survival or Death of scuticociliates (activity and shape, microscope) (scuticociliates [3]; Dosage 900 ppm): Death | Survival or Death of scuticociliates (activity and shape, microscope) (scuticociliates [3]; Dosage 1000 ppm): Death | oral dose excreted in the urine [4]: 10% | infection of scuticociliates after administration (scuticociliates [5]; Juju farm, once daily for 5 days, infection rate before 50%): no infection of scuticociliates was detected | infection of scuticociliates after administration (scuticociliates [5]; Pohang farm, once daily for 7 days, infection rate before 70%): no infection of scuticociliates was detected | infection of scuticociliates after administration (scuticociliates [5]; Wando farm, once daily for 7 days, infection rate before 70%): no infection of scuticociliates was detected | effect on activity of lysozyme in serum, spleen, kidney (lysozyme): does not affect the activity of lysozyme | liver index (GOT and GPT) of infected fish after administration [6]: lowered to the normal range | cumulative mortality rate (scuticociliates [7]; immersion administration 100 ppm for 1 hour): remarkably decreased | cumulative mortality rate (scuticociliates [7]; oral administration once, feed with 200 ppm): remarkably decreased

c1ccc(C2CN3CCSC3=N2)cc1 (stereo not drawn) [Tetramisole]
Survival or Death of scuticociliates (activity and shape, microscope) (scuticociliates [1]; Dosage 500 ppm): Survival | Survival or Death of scuticociliates (activity and shape, microscope) (scuticociliates [1]; Dosage 1000 ppm): Survival | Survival or Death of scuticociliates (activity and shape, microscope) (scuticociliates [1]; Dosage 1500 ppm): Survival | Survival or Death of scuticociliates (activity and shape, microscope) (scuticociliates [1]; Dosage 2000 ppm): Survival | Survival or Death of scuticociliates (activity and shape, microscope) (scuticociliates [1]; Dosage 2500 ppm): Survival | Survival or Death of scuticociliates (activity and shape, microscope) (scuticociliates [1]; Dosage 3000 ppm): Survival | Survival or Death of scuticociliates (activity and shape, microscope) (scuticociliates [1]; Dosage 3500 ppm): Survival | Survival or Death of scuticociliates (activity and shape, microscope) (scuticociliates [1]; Dosage 4000 ppm): Survival | Survival or Death of scuticociliates (activity and shape, microscope) (scuticociliates [3]; Dosage 500 ppm): Survival | Survival or Death of scuticociliates (activity and shape, microscope) (scuticociliates [3]; Dosage 1000 ppm): Survival | Survival or Death of scuticociliates (activity and shape, microscope) (scuticociliates [3]; Dosage 1500 ppm): Survival | Survival or Death of scuticociliates (activity and shape, microscope) (scuticociliates [3]; Dosage 2000 ppm): Survival | Survival or Death of scuticociliates (activity and shape, microscope) (scuticociliates [3]; Dosage 2500 ppm): Survival | Survival or Death of scuticociliates (activity and shape, microscope) (scuticociliates [3]; Dosage 3000 ppm): Survival | Survival or Death of scuticociliates (activity and shape, microscope) (scuticociliates [3]; Dosage 3500 ppm): Survival | Survival or Death of scuticociliates (activity and shape, microscope) (scuticociliates [3]; Dosage 4000 ppm): Survival

COP(=O)(OC)C(O)C(Cl)(Cl)Cl (stereo not drawn) [Trichlorfon]
Survival or Death of scuticociliates (activity and shape, microscope) (scuticociliates [1]; Dosage 10 ppm): Survival | Survival or Death of scuticociliates (activity and shape, microscope) (scuticociliates [1]; Dosage 50 ppm): Survival | Survival or Death of scuticociliates (activity and shape, microscope) (scuticociliates [1]; Dosage 100 ppm): Survival | Survival or Death of scuticociliates (activity and shape, microscope) (scuticociliates [1]; Dosage 200 ppm): Survival | Survival or Death of scuticociliates (activity and shape, microscope) (scuticociliates [1]; Dosage 500 ppm): Survival | Survival or Death of scuticociliates (activity and shape, microscope) (scuticociliates [1]; Dosage 600 ppm): Death | Survival or Death of scuticociliates (activity and shape, microscope) (scuticociliates [1]; Dosage 700 ppm): Death | Survival or Death of scuticociliates (activity and shape, microscope) (scuticociliates [3]; Dosage 200 ppm): Survival | Survival or Death of scuticociliates (activity and shape, microscope) (scuticociliates [3]; Dosage 500 ppm): Survival | Survival or Death of scuticociliates (activity and shape, microscope) (scuticociliates [3]; Dosage 600 ppm): Δ | Survival or Death of scuticociliates (activity and shape, microscope) (scuticociliates [3]; Dosage 700 ppm): Death | Survival or Death of scuticociliates (activity and shape, microscope) (scuticociliates [3]; Dosage 800 ppm): Death | Survival or Death of scuticociliates (activity and shape, microscope) (scuticociliates [3]; Dosage 900 ppm): Death | Survival or Death of scuticociliates (activity and shape, microscope) (scuticociliates [3]; Dosage 1000 ppm): Death
